Target: T1, histamine H3 receptor (Rattus norvegicus, UniProt Q9QYN8)
T1 construct: from tissue; host or cells: rat striatum (Sprague-Dawley, male, 6 weeks), membrane homogenate
Assay: Histamine H3 receptor binding assay ([3H]-Nα-methylhistamine binding to rat striatum homogenate)
Details: 1 μmol/L test compound; [3H]-Nα-methylhistamine 1 nmol/L; striata of Sprague-Dawley male rats, 25° C., 1 hour; read-out: Inhibition ratio of [3H]-Nα-methylhistamine binding
Protocol: To the striata of Sprague-Dawley male rats (6 weeks of age), a 10-fold volume of lysis buffer {50 mmol/L [[…] (Tris)]/HCl (pH 7.4), 5 mmol/L ethylenediaminetetraacetic acid (EDTA), a protease inhibitor mixture [1 mg/mL phenylmethylsulfonyl fluoride (PMSF), 1 μg/mL pepstatin A, 1 μg/mL leupeptin, 1 μg/mL chymostatin]} was added and the striata were homogenized. The resulting homogenate was centrifuged (30,000×g, 4° C., 30 min), and the obtained precipitate was resuspended in a 10-fold volume of lysis buffer, followed by centrifugation under the same condition. To the obtained precipitate, a 3-fold volume of lysis buffer was added to suspend the precipitate, and the resulting tissue homogenate was used for a test.
A test compound was dissolved in an assay buffer [50 mmol/L Tris/HCl (pH 7.4), 5 mmol/L EDTA], and [^3H]-N^α-methylhistamine (1 nmol/L) and the tissue homogenate (20 μg, in terms of protein amount) were added thereto, and then, the mixture was incubated at 25° C. for 1 hour. Then, the reaction was terminated by rapid suction filtration on a glass filter [GF/B: Whatman, previously soaked in 0.3 w/v % polyethylenimine for about 30 min]. Then, the glass filter was washed three times with 3 mL of assay buffer. This glass filter was transferred into a scintillation vial and dried at 60° C. for 30 minutes. Then, 0.5 mL of Ultimagold (Perkin Elmer) was added thereto, and the radioactivity (binding amount of [^3H]-N^α-methylhistamine) was measured using a liquid scintillation counter. The obtained value was used as a binding amount in the presence of the test compound. The same procedure as described above was carried out in the absence of the test compound, and the binding amount of [^3H]-N^α-methylhistamine obtained at this time was used as a binding amount in the absence of the test compound. Further, the binding amount of [^3H]-N^α-methylhistamine obtained in the presence of 10 μmol/L thioperamide was used as a non-specific binding amount. An inhibitory action of [^3H]-N^α-methylhistamine binding was represented by an inhibition ratio in terms of 1 μmol/L of the test compound calculated by the following Equation (1).
Inhibition ratio(%)={1−[(Binding amount in the presence of test compound)−(Non-specific binding amount)]/[(Binding amount in the absence of test compound)−(Non-specific binding amount)]}×100 (1)

T1 sequence (Q9QYN8 whole entry): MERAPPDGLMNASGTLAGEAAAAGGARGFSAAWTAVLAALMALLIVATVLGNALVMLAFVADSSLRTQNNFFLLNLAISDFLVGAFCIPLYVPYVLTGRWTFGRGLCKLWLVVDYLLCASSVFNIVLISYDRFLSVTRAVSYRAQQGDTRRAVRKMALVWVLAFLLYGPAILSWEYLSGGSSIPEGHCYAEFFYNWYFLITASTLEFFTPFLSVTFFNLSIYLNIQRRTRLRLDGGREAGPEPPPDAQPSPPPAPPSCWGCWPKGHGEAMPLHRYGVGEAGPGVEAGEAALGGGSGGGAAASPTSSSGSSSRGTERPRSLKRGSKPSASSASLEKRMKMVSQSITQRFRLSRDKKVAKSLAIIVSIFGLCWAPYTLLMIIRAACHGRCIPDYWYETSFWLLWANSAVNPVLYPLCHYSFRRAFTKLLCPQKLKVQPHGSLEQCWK

Compound	inhibition at 1 µM [%]
CC1CCCN(CCCN2CCN(CCCN3CC=CCC3)C2=C(C#N)C#N)C1 (stereo not shown) [Compound 87, {1-[3-(1,2,3,6-Tetrahydropyridin-1-yl)propyl]-3-[3-(3-methylpiperidino)propyl]imidazolidin-2-ylidene}malononitrile]	≥ 80
N#CC(C#N)=C1N(CCCN2CC=CCC2)CCN1CCCN1CC=CCC1 [Compound 88, {1,3-bis[3-(1,2,3,6-Tetrahydropyridin-1-yl)propyl]imidazolidin-2-ylidene}malononitrile]	≥ 80
CC1CC(C)CN(CCCN2CCN(CCCN3CC=CCC3)C2=C(C#N)C#N)C1 (stereo not shown) [Compound 91, {1-[3-(1,2,3,6-Tetrahydropyridin-1-yl)propyl]-3-[3-(3,5-dimethylpiperidino)propyl]imidazolidin-2-ylidene}malononitrile]	≥ 80
CC1CCCN1CCCN1CCN(CCCN2CC=CCC2)C1=C(C#N)C#N (stereo not shown) [Compound 92, {1-[3-(1,2,3,6-Tetrahydropyridin-1-yl)propyl]-3-[3-(2-methylpyrrolidin-1-yl)propyl]imidazolidin-2-ylidene}malononitrile]	≥ 80
CC1CC(C)CN(CCCN2CCN(CCCN3CCCCC3C)C2=C(C#N)C#N)C1 (stereo not shown) [Compound 104, {1-[3-(3,5-Dimethylpiperidino)propyl]-3-[3-(2-methylpiperidino)propyl]imidazolidin-2-ylidene}malononitrile]	≥ 80
CC1CCCN(CCCN2CCN(CCCN3CC(C)CC(C)C3)C2=C(C#N)C#N)C1 (stereo not shown) [Compound 105, {1-[3-(3,5-Dimethylpiperidino)propyl]-3-[3-(3-methylpiperidino)propyl]imidazolidin-2-ylidene}malononitrile]	≥ 80
CC1CCN(CCCN2CCN(CCCN3CC(C)CC(C)C3)C2=C(C#N)C#N)CC1 (stereo not shown) [Compound 106, {1-[3-(3,5-Dimethylpiperidino)propyl]-3-[3-(4-methylpiperidino)propyl]imidazolidin-2-ylidene}malononitrile]	≥ 80
CC1CC(C)CN(CCCN2CCN(CCCN3CCC(O)C3)C2=C(C#N)C#N)C1 (stereo not shown) [Compound 107, {1-[3-(3,5-Dimethylpiperidino)propyl]-3-[3-(3-hydroxypyrrolidin-1-yl)propyl]imidazolidin-2-ylidene}malononitrile]	≥ 80
CC1CC(C)CN(CCCN2CCN(CCCN3C(C)CCCC3C)C2=C(C#N)C#N)C1 (stereo not shown) [Compound 108, {1-[3-(2,6-Dimethylpiperidino)propyl]-3-[3-(3,5-dimethylpiperidino)propyl]imidazolidin-2-ylidene}malononitrile]	≥ 80
CC1CC(C)CN(CCCN2CCN(CCCN3CC(C)CC(C)C3)C2=C(C#N)C#N)C1 (stereo not shown) [Compound 109, {1,3-Bis[3-(3,5-dimethylpiperidino)propyl]imidazolidin-2-ylidene}malononitrile]	≥ 80
CC1CC(C)CN(CCCN2CCN(CCCN3CCCC3C)C2=C(C#N)C#N)C1 (stereo not shown) [Compound 110, {1-[3-(3,5-Dimethylpiperidino)propyl]-3-[3-(2-methylpyrrolidin-1-yl)propyl]imidazolidin-2-ylidene}malononitrile]	≥ 80
CC1CCCN(CCCN2CCN(CCCN3CCCC3C)C2=C(C#N)C#N)C1 (stereo not shown) [Compound 112, {1-[3-(3-Methylpiperidino)propyl]-3-[3-(2-methylpyrrolidin-1-yl)propyl]imidazolidin-2-ylidene}malononitrile]	≥ 80
CC1CCCN1CCCN1CCN(CCCN2CCC(O)C2)C1=C(C#N)C#N (stereo not shown) [Compound 114, {1-[3-(3-Hydroxypyrrolidin-1-yl)propyl]-3-[3-(2-methylpyrrolidin-1-yl)propyl]imidazolidin-2-ylidene}malononitrile]	≥ 80
C[C@@H]1CCCN1CCCN1CCN(CCCN2CCC[C@H]2C)C1=C(C#N)C#N [Compound 116, {1,3-Bis[3-((R)-2-methylpyrrolidin-1-yl)propyl]imidazolidin-2-ylidene}malononitrile Difumarate]	≥ 80
CC1CCCN1CCCN1CCCN(CCCN2CCCC2C)C1=C(C#N)C#N (stereo not shown) [Compound 123, {1,3-Bis[3-(2-methylpyrrolidin-1-yl)propyl]hexahydropyrimidin-2-ylidene}malononitrile]	≥ 80
C[C@H]1CCCN1CCCN1C(=C(C#N)C#N)N(CCCN2CCC[C@@H]2C)c2ccccc21 [Compound 125, {1,3-Bis[3-((S)-2-methylpyrrolidin-1-yl)propyl]benzimidazolidin-2-ylidene}malononitrile]	≥ 80
CC1CCCN1CCCN1CCN(C2CCN(Cc3ccccc3)CC2)C1=C(C#N)C#N (stereo not shown) [Compound 127, {1-(1-Benzylpiperidin-4-yl)-3-[3-(2-methylpyrrolidin-1-yl)propyl]imidazolidin-2-ylidene}malononitrile]	≥ 80
CC(C)N1CCC(CN2CCN(CCCN3CCCCC3)C2=C(C#N)C#N)CC1 [Compound 133, {1-[(1-Isopropylpiperidin-4-yl)methyl]-3-(3-piperidinopropyl)imidazolidin-2-ylidene}malononitrile]	≥ 80
CC(C)N1CCC(CN2CCN(CC3CCN(C(C)C)CC3)C2=C(C#N)C#N)CC1 [Compound 134, [1,3-Bis(1-isopropylpiperidin-4-ylmethyl)imidazolidin-2-ylidene]malononitrile]	≥ 80

The next lines start with the values.

inhibition at 1 µM [%]	Compound
≥ 80	N#CC(C#N)=C1N(CCCN2CC=CCC2)CCN1CCCN1CCCC1 [Compound 89, {1-[3-(1,2,3,6-Tetrahydropyridin-1-yl)propyl]-3-[3-(pyrrolidin-1-yl)propyl]imidazolidin-2-ylidene}malononitrile]
≥ 80	N#CC(C#N)=C1N(CCCN2CC=CCC2)CCN1CCCN1CCCCC1 [Compound 90, {1-[3-(1,2,3,6-Tetrahydropyridin-1-yl)propyl]-3-(3-piperidinopropyl)imidazolidin-2-ylidene}malononitrile]
≥ 80	CC1CCCCN1CCCN1CCN(CCCN2CCCC2)C1=C(C#N)C#N (stereo not shown) [Compound 93, {1-[3-(2-Methylpiperidino)propyl]-3-[3-(pyrrolidin-1-yl)propyl]imidazolidin-2-ylidene}malononitrile]
≥ 80	N#CC(C#N)=C1N(CCCN2CCCC2)CCN1CCCN1CCCC1 [Compound 94, {1,3-Bis[3-(pyrrolidin-1-yl)propyl]imidazolidin-2-ylidene}malononitrile]
≥ 80	N#CC(C#N)=C1N(CCCN2CCCCC2)CCN1CCCN1CCCC1 [Compound 95, {1-(3-Piperidinopropyl)-3-[3-(pyrrolidin-1-yl)propyl]imidazolidin-2-ylidene}malononitrile]
≥ 80	CC1CC(C)CN(CCCN2CCN(CCCN3CCCC3)C2=C(C#N)C#N)C1 (stereo not shown) [Compound 96, {1-[3-(3,5-Dimethylpiperidino)propyl]-3-[3-(pyrrolidin-1-yl)propyl]imidazolidin-2-ylidene}malononitrile]
≥ 80	CC1CCCN1CCCN1CCN(CCCN2CCCC2)C1=C(C#N)C#N (stereo not shown) [Compound 97, {1-[3-(2-Methylpyrrolidin-1-yl)propyl]-3-[3-(pyrrolidin-1-yl)propyl]imidazolidin-2-ylidene}malononitrile]
≥ 80	CC1CCCCN1CCCN1CCN(CCCN2CCCCC2)C1=C(C#N)C#N (stereo not shown) [Compound 98, {1-[3-(2-Methylpiperidino)propyl]-3-(3-piperidinopropyl)imidazolidin-2-ylidene}malononitrile]
≥ 80	CC1CCCN(CCCN2CCN(CCCN3CCCCC3)C2=C(C#N)C#N)C1 (stereo not shown) [Compound 99, {1-[3-(3-Methylpiperidino)propyl]-3-(3-piperidinopropyl)imidazolidin-2-ylidene}malononitrile]
≥ 80	CC1CCN(CCCN2CCN(CCCN3CCCCC3)C2=C(C#N)C#N)CC1 [Compound 100, {1-[3-(4-Methylpiperidino)propyl]-3-(3-piperidinopropyl)imidazolidin-2-ylidene}malononitrile]
≥ 80	N#CC(C#N)=C1N(CCCN2CCCCC2)CCN1CCCN1CCC(O)C1 (stereo not shown) [Compound 101, {1-[3-(3-Hydroxypyrrolidin-1-yl)propyl]-3-(3-piperidinopropyl)imidazolidin-2-ylidene}malononitrile]
≥ 80	CC1CC(C)CN(CCCN2CCN(CCCN3CCCCC3)C2=C(C#N)C#N)C1 (stereo not shown) [Compound 102, {1-[3-(3,5-Dimethylpiperidino)propyl]-3-(3-piperidinopropyl)imidazolidin-2-ylidene}malononitrile]

— US20090181948A1, “DIAMINE DERIVATIVE” (KYOWA HAKKO KOGYO CO., LTD., priority 2005, published 2009)
